Where two headings read alike, the source gives them in different places.
Molecular target: T1, Fc portion of human IgG (binding of protein A to human IgG)
T1 construct: fused on or other part: Horseradish peroxidase chemically conjugated to the IgG (HRP-IgG)
Assay: Competitive protein A binding ELISA
Experimental: As described above, this assay evaluates the ability of the exemplified compounds to mimic protein A. Such compounds can bind to the Fc portion of human IgG as ascertained by the inhibition of binding of protein A to human IgG. The competitive protein A binding ELISA assay was performed on a 96-well plate Maxisorp surface to enhance the binding of protein A to the bottom of the plate. The wells were coated with 100 μL of protein A (0.8 μg) and incubated overnight at 4° C. After incubation, unbound protein A was removed by three washes with phosphate buffer saline (PBS). The plate was then incubated with 100 μL/well of a 2% solution of bovine serum albumin (BSA) for 1 h at 37° C. to block non specific protein binding. After incubation, the plate was washed to times with PBS. 50 μL of compound or protein A, diluted in PBS or PBS-20% DMSO at appropriate concentration, were added to the wells followed by addition of 50 μL of peroxidase-conjugated human IgG (HRP-IgG). After 1 h incubation at 37° C., the plate was washed free times with PBS to remove unbound HRP-IgG. Bound HRP-IgG was detected by incubation with 100 μL of 2,2′-Azino-di[3-ethylbenzothiazoline sulfonate]diammonium salt crystals (ABTS) solution for 20 min in the dark at room temperature. The plate was then read at 405 nm on a EL 800, universal Microplate reader (Bio-Tek). Data was analyzed in Microsoft Excel and the concentration of compound which inhibits 50% binding of protein A (IC50) was calculated using Prism software.
Table 1 represents the IC50 of compounds tested in the competitive protein A binding ELISA assay, which consists of a side-by-side analysis in PBS and PBS-20% DMSO. DMSO was used to increase the solubility of some of the compounds.

[1] = Table 1, PBS-20% DMSO, read-out: IC50 (μM): Assay in PBS-20% DMSO
[2] = Table 1, PBS, read-out: IC50 (μM): Assay in PBS
[3] = Table 2, PBS-20% DMSO, n = 5 or 6, read-out: IC50 (n = 5 or 6) PBS-20% DMSO
[4] = Table 2, PBS, n = 5 or 6, read-out: IC50 (n = 5 or 6) PBS

Structure (SMILES)	IC50 [1]	IC50 [2]	IC50 [3]	IC50 [4]
Nc1ccc(CNc2nc(NCCNc3nc(NCc4ccc(N)cc4)nc(Nc4ccccc4)n3)nc(Nc3ccccc3)n2)cc1 [Compound 6]	0.4 µM	2.4 µM		
COC(=O)[C@H](Cc1ccc(O)cc1)Nc1nc(NCCNc2nc(NCCc3cc4ccccc4[nH]3)nc(N[C@@H](Cc3ccc(O)cc3)C(=O)OC)n2)nc(NCCc2cc3ccccc3[nH]2)n1 [Compound 8]	28 µM			
O=C(O)c1ccccc1Nc1nc(NCCNc2nc(NCCc3ccc(O)cc3)nc(Nc3ccccc3C(=O)O)n2)nc(NCCc2ccc(O)cc2)n1 [Compound 9]	50 µM			
O=C(O)[C@H](Nc1nc(NCCNc2nc(NCCc3ccc(O)cc3)nc(N[C@@H](C(=O)O)c3ccccc3)n2)nc(NCCc2ccc(O)cc2)n1)c1ccccc1 [Compound 10]	85 µM	69 µM		
Oc1ccc(CCNc2nc(Nc3ccccc3)nc(Nc3ccc(CNc4nc(NCCc5cnc[nH]5)nc(Nc5ccccc5)n4)cc3)n2)cc1 [Compound 27]	28 µM			
Nc1ccc(CCNc2nc(Nc3cccc(N)c3)nc(N3CCN(c4nc(NCCc5ccc(N)cc5)nc(Nc5cccc(N)c5)n4)CC3)n2)cc1 [Compound 29]	0.003 µM	0.2 µM	0.0029 µM	0.225 µM
Nc1ccc(CCNc2nc(NCC3CCN(c4nc(NCCc5ccc(N)cc5)nc(Nc5cccc(N)c5)n4)CC3)nc(Nc3cccc(N)c3)n2)cc1 [Compound 30]	0.03 µM	0.4 µM	0.033 µM	0.426 µM
Nc1ccc(CCNc2nc(NCCCCCCNc3nc(NCCc4ccc(N)cc4)nc(Nc4cccc(N)c4)n3)nc(Nc3cccc(N)c3)n2)cc1 [Compound 31]	0.12 µM	0.99 µM		
Nc1ccc(CCNc2nc(NCC3CCN(c4nc(NCCc5ccc(N)cc5)nc(Nc5ccccc5)n4)CC3)nc(Nc3ccccc3)n2)cc1 [Compound 32]	2 µM	33 µM		
Cc1ccc(Nc2nc(NCCc3ccc(N)cc3)nc(Nc3ccccc3)n2)cc1CNc1nc(NCCO)nc(Nc2ccccc2)n1 [Compound 34]	1 µM	23 µM		
Nc1ccc(CCNc2nc(Nc3ccccc3)nc(Nc3cccc(CNc4nc(NCCO)nc(Nc5ccccc5)n4)c3)n2)cc1 [Compound 35]	1 µM	23 µM		
Nc1ccc(CCNc2nc(Nc3ccccc3)nc(N3CCN(c4nc(NCCc5ccc(N)cc5)nc(Nc5ccccc5)n4)CC3)n2)cc1 [Compound 36]	16 µM			
Oc1ccc(CCNc2nc(NCc3ccccc3Nc3nc(NCCc4ccc(O)cc4)nc(Nc4ccccc4)n3)nc(Nc3ccccc3)n2)cc1 [Compound 37]	23 µM			
Oc1ccc(CCNc2nc(Nc3ccccc3)nc(N[C@H](COc3nc(NCCc4ccc(O)cc4)nc(Nc4ccccc4)n3)c3ccccc3)n2)cc1 [Compound 39]	43 µM			
Nc1cccc(Nc2nc(N)nc(NCc3ccc(CNc4nc(N)nc(Nc5cccc(N)c5)n4)cc3)n2)c1 [Compound 41]	0.02 µM	0.03 µM		
Nc1cccc(Nc2nc(NCCO)nc(Nc3cccc(CNc4nc(Nc5cccc(N)c5)nc(Nc5cccc(N)c5)n4)c3)n2)c1 [Compound 43]	0.05 µM	0.08 µM		
Nc1cccc(Nc2nc(NCCO)nc(N3CCN(c4nc(Nc5cccc(N)c5)nc(Nc5cccc(N)c5)n4)CC3)n2)c1 [Compound 44]	0.04 µM	0.09 µM		
Nc1cccc(Nc2nc(N)nc(Nc3cccc(Nc4nc(NCCO)nc(Nc5cccc(N)c5)n4)c3)n2)c1 [Compound 46]	0.8 µM	0.2 µM		
Nc1cccc(Nc2nc(NCCO)nc(Nc3ccc(Nc4nc(NCCO)nc(Nc5cccc(N)c5)n4)cc3)n2)c1 [Compound 47]	0.2 µM	0.2 µM		
Nc1ccc(CNc2nc(NCc3ccc(CNc4nc(NCc5ccc(N)cc5)nc(Nc5cccc(N)c5)n4)cc3)nc(Nc3cccc(N)c3)n2)cc1 [Compound 48]	0.05 µM	0.2 µM		
Nc1cccc(Nc2nc(NCCO)nc(Nc3cccc(Nc4nc(NCCO)nc(Nc5cccc(N)c5)n4)c3)n2)c1 [Compound 49]	0.5 µM	0.3 µM		

From US7683061B2, “Triazine dimers for the treatment of autoimmune diseases” (ProMetic BioSciences Inc., priority 2003, dated 2010)
